Experimental data taken from US5750531A, “Pyrimidine derivatives and processes for the preparation thereof” (Yuhan Corporation, priority 1994, dated 1998).
Structures can show the parent of a compound that is named as a salt.

Key:
H^+ /K^+ -ATPase = assay: Reversibility Test (Dilution and Washout method, gastric vesicles); format: biochemical; conditions: compound 50 μM
Procedure: Test 3. Reversibility Test
Gastric vesicles were prepared by the same method as in Experiment 4-1 of WO 94/14795. The inhibition mechanism of proton pump activity by the present invention compound was tested in accordance with the so-called Dilution and Washout method [see e.g., D. J. Keeling, et al., Biochemical Pharmacology, 42(1), 123-130(1991)].
Namely, test tubes were divided into two group, Groups 1 and 2. Each group was divided into four subgroups. 90 μl of 5 mM Pipes/Tris buffer(pH 7.4) and 10 μl of DMSO were added to subgroups 1 and 2 of each group. 90 μl of 5 mM Pipes/Tris buffer(pH 7.4) and 10 μl of the compound prepared in Example 43(50 μM) were added to subgroups 3 and 4 of each group. To all two groups, was added 100 μl of lyophilized vesicles at the concentration of 100 μg protein/ml and then preincubated at 37° C. for 15 minutes.
2 mM MgCl2 was added to subgroups 1 and 3 of Group 1. 2 mM MgCl2 and 10 mM KCl were added to subgroups 2 and 4 of Group 1. 3 mM ATP was added to all subgroups of Group 1 until the final volume became 500 μl. After incubation for 30 minutes, the inhibition of H^+ /K^+ -ATPase activity by the test compound was measured.
After preincubation as described above, each subgroup of Group 2 was diluted with 50-fold volume of 5 mM Pipes/Tris buffer(pH7.4) and then centrifuged for 60 minutes by means of Beckman ultracentrifuge(Model L8-80). The supernatant was discarded and washed out by 10 ml of 5 mM Pipes/Tris buffer(ph 7.4). The resulting pellet was suspended with 5 mM Pipes/Tris buffer (pH7.4) until the volume became the same as the preincubation volume.
Thereafter, in accordance with the treatment to Group 1, each subgroup of Group 2 was treated with 2 mM MgCl2, 10 mM KCl and 3 mM ATP. And the final volume of each subgroup of Group 2 was made to be 500 μl.
And it was further measured in accordance with the same procedures as above, except the compound prepared in Example 75 was used as a test compound.

[1] = molecular target: proton pump(H^+ /K^+ ATPase); assay: Inhibition of proton pump(H^+ /K^+ ATPase) activity; format: biochemical; conditions: pH 6.0, 37° C., 30 minutes preincubation and 30 minutes reaction; read-out: IC50 Test compound
How it was run: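 Enzyme was preincubated with compound at five concentrations for 30 min at 37° C in Tris-HCl pH 6.0 with Mg2+, K+ and NH4Cl. Reaction ran 30 min at 37° C with ATP and was stopped with trichloroacetic acid. K+-stimulated inorganic phosphate release gave IC50 by Litchfield-Wilcoxon.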

gastric secretion = assay: Inhibition of gastric secretion (pylorus ligation, Shay method); format: in vivo, Male Sprague-Dawley rats; conditions: 20 mg/kg intraduodenally, 5 hours; for Rel. Conc.: acid concentration relative to omeprazole; for Relative Acid Output: acid output relative to omeprazole; for Rel. Vol.: gastric juice volume relative to omeprazole
How it was run: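 Rats under ether anaesthesia had the pylorus ligated, and the stomach was removed 5 h later. Gastric juice was centrifuged at 1,000 g, and its volume and acidity were measured. Relative volume, relative acid concentration and relative acid output […] were then calculated.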

proton pump = conditions: in words, background; cited from earlier work

SMILES | inhibition of H^+ /K^+ ATPase activity, after Dilution & Washout (H^+ /K^+ -ATPase) [%] | inhibition of H^+ /K^+ ATPase activity, before Dilution & Washout (H^+ /K^+ -ATPase) [%] | IC50 [1] [nM] | Rel. Conc. (gastric secretion) | Relative Acid Output (gastric secretion) | Rel. Vol. (gastric secretion) | reversibility of proton pump inhibition (proton pump)
Cc1nc(N(C)c2ccccc2)nc(N2CCc3ccccc3C2)c1C.Cl [Example 43, 5,6-dimethyl-2-(N-methylphenylamino)-4-(1,2,3,4-tetrahydroisoquinolin-2-yl)pyrimidine hydrochloride] | 6 | 62 | 500 | 0.59 | 0.82 | 0.7 | 
Cc1nc(N2CCc3ccccc3C2)nc(Nc2ccc(F)cc2)c1C.Cl [Example 75, 5,6-dimethyl-4-(4-fluorophenylamino)-2-(1,2,3,4-tetrahydroisoquinolin-2-yl)pyrimidine hydrochloride] | 15 | 66.6 | 1200 | 1.62 | 1.20 | 1.3 | 
COc1ccc2[nH]c([S+]([O-])Cc3ncc(C)c(OC)c3C)nc2c1 (stereo not drawn) [Omeprazole, omeprazole, reference compound] |  |  |  |  |  |  | irreversible
Cc1cc(F)ccc1Nc1nc(N2CCc3ccccc3C2C)nc2c1CCCC2.Cl (stereo not drawn) [Example 82, 4-(2-Methyl-4-fluorophenylamino)-2-(1-methyl-1,2,3,4-tetrahydroisoquinolin-2-yl)-5,6,7,8-tetrahydroquinazoline hydrochloride] |  |  | 1100 | 0.59 | 0.79 | 0.69 | 
Cc1cc(N2CCc3ccccc3C2C)nc(Nc2ccc(F)cc2C)n1.Cl (stereo not drawn) [Example 2, 6-methyl-2-(2-methyl-4-fluorophenylamino)-4-(1-methyl-1,2,3,4-tetrahydroisoquinolin-2-yl)pyrimidine hydrochloride] |  |  | 900 | 0.8 | 0.89 | 0.92 | 
Cc1nc(Nc2ccccc2)nc(N2CCc3ccccc3C2C)c1C.Cl (stereo not drawn) [Example 21, 5,6-dimethyl-2-(phenylamino)-4-(1-methyl-1,2,3,4-tetrahydroisoquinolin-2-yl)pyrimidine hydrochloride] |  |  | 1500 | 0.88 | 0.97 | 1.06 | 
CCc1nc(Nc2ccc(F)cc2)nc(N2CCc3ccccc3C2)c1C.Cl [Example 45, 5-methyl-6-ethyl-2-(4-fluorophenylamino)-4-(1,2,3,4-tetrahydroisoquinolin-2-yl)pyrimidine hydrochloride] |  |  | 3100 | 0.75 | 0.89 | 0.84 | 
Cc1cc(N2CCc3ccccc3C2C)nc(Nc2ccc(F)cc2)n1.Cl (stereo not drawn) [Example 3, 6-methyl-4-(1-methyl-1,2,3,4-tetrahydroisoquinolin-2-yl)-2-(4-fluorophenylamino)pyrimidine hydrochloride] |  |  | 3500 | 0.81 | 0.87 | 0.76 | 
CCc1cc(N2CCc3ccccc3C2C)nc(Nc2ccc(F)cc2)n1.Cl (stereo not drawn) [Example 6, 6-ethyl-2-(4-fluorophenylamino)-4-(1-methyl-1,2,3,4-tetrahydroisoquinolin-2-yl)pyrimidine hydrochloride] |  |  | 4300 | 0.28 | 0.64 | 0.64 | 
Cc1cc(N2CCc3ccsc3C2C)nc(Nc2ccc(F)cc2C)n1.Cl (stereo not drawn) [Example 52, 6-methyl-2-(2-methyl-4-fluorophenylamino)-4-(7-methyl-4,5,6,7-tetrahydrothieno[2,3-c]pyridin-6-yl)pyrimidine hydrochloride] |  |  | 500 | 0.94 | 1.12 | 1.34 | 
Cc1cc(Nc2ccc(F)cc2C)nc(N2CCc3ccsc3C2C)n1.Cl (stereo not drawn) [Example 59, 6-methyl-4-(2-methyl-4-fluorophenylamino)-2-(7-methyl-4,5,6,7-tetrahydrothieno[2,3-c]pyridin-6-yl)pyrimidine hydrochloride] |  |  | ~12500 | 0.25 | 0.56 | 0.51 | 
CC1c2ccccc2CCN1c1nc(Nc2ccc(F)cc2)nc2c1CCC2 (stereo not drawn) [Example 30, hydrochloride] |  |  | ~8400 | 0.2 | 0.39 | 0.33 | 
Cc1cc(F)ccc1Nc1nccc(N2CCc3ccccc3C2C)n1.Cl (stereo not drawn) [Example 1, 2-(2-methyl-4-fluorophenylamino)-4-(1-methyl-1,2,3,4-tetrahydroisoquinolin-2-yl)pyrimidine hydrochloride] |  |  | 5400 |  | 0.11 | 0.12 | 
CN(c1ccccc1)c1nc2c(c(N3CCc4ccccc4C3)n1)CCCC2.Cl [Example 50, 2-(N-methylphenylamino)-4-(1,2,3,4-tetrahydroisoquinolin-2-yl)-5,6,7,8-tetrahydroquinazoline hydrochloride] |  |  | ~16900 | 0.29 | 0.66 | 0.72 | 
Cc1cc(F)ccc1Nc1nc(N2CCc3ccccc3[C@H]2C)nc(C)c1C.Cl [Example 66, (R)-5,6-dimethyl-4-(2-methyl-4-fluorophenylamino)-2-(1-methyl-1,2,3,4-tetrahydroisoquinolin-2-yl)pyrimidine hydrochloride] |  |  | 900 | 0.47 | 0.85 | 1.49 | 
Cc1ccccc1Nc1nc(C)c(C)c(N2CCc3ccccc3C2C)n1.Cl (stereo not drawn) [Example 24, 5,6-Dimethyl-2-(2-methylphenylamino)-4-(1-methyl-1,2,3,4-tetrahydroisoquinolin-2-yl)pyrimidine hydrochloride] |  |  | 600 | 1.03 | 1.01 | 1 | 
CCc1nc(Nc2ccc(F)cc2C)nc(N2CCc3ccccc3C2)c1C.Cl [Example 44, 5-methyl-6-ethyl-2-(2-methyl-4-fluorophenylamino)-4-(1,2,3,4-tetrahydroisoquinolin-2-yl)pyrimidine hydrochloride] |  |  | ~11300 | 0.33 | 0.41 | 0.27 | 
Cc1cc(F)ccc1Nc1nc2c(c(N3CCc4ccccc4C3C)n1)CCCC2.Cl (stereo not drawn) [Example 32, 2-(2-methyl-4-fluorophenylamino)-4-(1-methyl-1,2,3,4-tetrahydroisoquinolin-2-yl)-5,6,7,8-tetrahydroquinazoline hydrochloride] |  |  | 1200 | 0.97 | 0.91 | 1.03 | 
